Laboratory results published in patent US8329645B2, “Polymyxin derivatives and uses thereof” (priority 2008, dated 2012).

How the values were obtained:
E. cloacae F230 = assay: E-test MIC with or without NAB7061 (4 μg/ml), Mueller-Hinton agar; assay type: cell-based, Enterobacter cloacae
How it was run: (§1)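 MICs were read from antibiotic gradient strips applied according to the manufacturer's instructions.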

E. cloacae F232 = assay: as above; assay type: cell-based, Enterobacter cloacae
How it was run: as §1

C. freundii ATCC8090 = assay: as above; assay type: cell-based, Citrobacter freundii
Experimental: (§2) MICs were determined by using E-strips (Biodisk Ltd., Solna, Sweden) according to the manufacturer's instructions.
(§3) The strains originated from ATCC (11 strains), CCUG (11 strains), and NCTC (The National Collection of Type Cultures, Colindale, U.K.; 2 strains). Eight strains (the F-strains) were purchased from Mobidiag Ltd., Helsinki, Finland.

Ac. baumannii ATCC19606 = assay: as above; assay type: cell-based, Acinetobacter baumannii; conditions: Ac. baumannii ATCC19606
Experimental: as §2, §3

Ac. baumannii F263 = assay: as above; assay type: cell-based, Acinetobacter baumannii; conditions: Ac. baumannii F263
Experimental: as §2, §3

Ac. baumannii F264 = assay: as above; assay type: cell-based, Acinetobacter baumannii; conditions: Ac. baumannii F264
Experimental: as §2, §3

P. vulgaris ATCC13315 = assay: as above; assay type: cell-based
Experimental: as §2, §3

S. maltophilia ATCC17444 = assay: as above; assay type: cell-based
Experimental: as §2, §3

S. marcescens ATCC8100 = assay: as above; assay type: cell-based, Serratia marcescens
Experimental: as §2, §3

P. mirabilis ATCC29906 = assay: as above; assay type: cell-based, Proteus mirabilis
Experimental: as §2, §3

P. aeruginosa ATCC27853 = assay: as above; assay type: cell-based, Pseudomonas aeruginosa
Experimental: as §2, §3

P. aeruginosa CCUG51971 = assay: as above; assay type: cell-based, Pseudomonas aeruginosa
Experimental: as §2, §3

P. aeruginosa F58 = assay: as above; assay type: cell-based, Pseudomonas aeruginosa
Experimental: as §2, §3

A. baumannii ATCC19606 = assay: E-test MIC of antibiotics on Mueller Hinton agar containing increasing concentrations of NAB739; assay type: cell-based, Acinetobacter baumannii
A. baumannii F264 = assay: as above; assay type: cell-based, Acinetobacter baumannii
P. aeruginosa ATCC 27853 = assay: as above; assay type: cell-based, Pseudomonas aeruginosa
[1] = system: both Acinetobacter strains (ATCC 19606 and F264); assay: E-test sensitization by NAB739, both strains; assay type: cell-based, Acinetobacter baumannii

## CO[C@H]1/C=C/O[C@@]2(C)Oc3c(C)c(O)c4c(O)c(c(/C=N/N5CCN(C)CC5)c(O)c4c3C2=O)NC(=O)/C(C)=C\C=C\[C@H](C)[C@H](O)[C@@H](C)[C@@H](O)[C@@H](C)[C@H](OC(C)=O)[C@@H]1C [Rifampin]
E. cloacae F230
  MIC of antibiotic in the presence of 4 μg/ml of NAB 7061: 0.016 to 0.032 µg/mL
  Sensitization factor to antibiotic (MIC without / with 4 μg/ml of NAB 7061): 1500
E. cloacae F232
  MIC of antibiotic in the presence of 4 μg/ml of NAB 7061: 0.023 µg/mL
  Sensitization factor to antibiotic (MIC without / with 4 μg/ml of NAB 7061): 1400
C. freundii ATCC8090
  MIC of antibiotic in the presence of 4 μg/ml of NAB 7061: 0.023 to 0.032 µg/mL
  Sensitization factor to antibiotic (MIC without / with 4 μg/ml of NAB 7061): 500-1000
Ac. baumannii ATCC19606
  Sensitization factor to antibiotic (MIC without / with 4 μg/ml of NAB 7061): 24-32
Ac. baumannii F263
  MIC of antibiotic in the presence of 4 μg/ml of NAB 7061: 0.032 to 0.19 µg/mL
Ac. baumannii F264
  Sensitization factor to antibiotic (MIC without / with 4 μg/ml of NAB 7061): 32
P. vulgaris ATCC13315
  MIC of antibiotic in the presence of 4 μg/ml of NAB 7061: 1 to 1.5 µg/mL
  Sensitization factor to antibiotic (MIC without / with 4 μg/ml of NAB 7061): <2
S. maltophilia ATCC17444
  MIC of antibiotic in the presence of 4 μg/ml of NAB 7061: 2 µg/mL
  Sensitization factor to antibiotic (MIC without / with 4 μg/ml of NAB 7061): 4-8
S. marcescens ATCC8100
  MIC of antibiotic in the presence of 4 μg/ml of NAB 7061: 16 µg/mL
  Sensitization factor to antibiotic (MIC without / with 4 μg/ml of NAB 7061): <2
P. mirabilis ATCC29906
  MIC of antibiotic in the presence of 4 μg/ml of NAB 7061: 1 to 6 µg/mL
  Sensitization factor to antibiotic (MIC without / with 4 μg/ml of NAB 7061): <2
P. aeruginosa ATCC27853
  MIC of antibiotic in the presence of 4 μg/ml of NAB 7061: 12 to 16 µg/mL
  Sensitization factor to antibiotic (MIC without / with 4 μg/ml of NAB 7061): 2
P. aeruginosa CCUG51971
  MIC of antibiotic in the presence of 4 μg/ml of NAB 7061: >32 µg/mL
  Sensitization factor to antibiotic (MIC without / with 4 μg/ml of NAB 7061): <2
P. aeruginosa F58
  MIC of antibiotic in the presence of 4 μg/ml of NAB 7061: >32 µg/mL
  Sensitization factor to antibiotic (MIC without / with 4 μg/ml of NAB 7061): <2
A. baumannii ATCC19606; NAB 739 0 μg/ml
  MIC of antibiotic in the presence of NAB739: 4 µg/mL
A. baumannii ATCC19606; NAB 739 0.5 μg/ml
  MIC of antibiotic in the presence of NAB739: 0.047 µg/mL
A. baumannii ATCC19606; NAB 739 1 μg/ml
  MIC of antibiotic in the presence of NAB739: 0.006 µg/mL
A. baumannii F264; NAB 739 0 μg/ml
  MIC of antibiotic in the presence of NAB739: 12 µg/mL
A. baumannii F264; NAB 739 0.5 μg/ml
  MIC of antibiotic in the presence of NAB739: 0.094 µg/mL
A. baumannii F264; NAB 739 1 μg/ml
  MIC of antibiotic in the presence of NAB739: 0.016 µg/mL
A. baumannii F264; NAB 739 […]
  MIC of antibiotic in the presence of NAB739: 0.38 µg/mL
P. aeruginosa ATCC 27853; NAB 739 0 μg/ml
  MIC of antibiotic in the presence of NAB739: 32 µg/mL
P. aeruginosa ATCC 27853; NAB 739 0.5 μg/ml
  MIC of antibiotic in the presence of NAB739: 32 µg/mL
P. aeruginosa ATCC 27853; NAB 739 1 μg/ml
  MIC of antibiotic in the presence of NAB739: 16 µg/mL
P. aeruginosa ATCC 27853; NAB 739 2 μg/ml
  MIC of antibiotic in the presence of NAB739: 4 µg/mL
P. aeruginosa ATCC 27853; NAB 739 […]
  MIC of antibiotic in the presence of NAB739: 32 µg/mL
[1]
  sensitization factors to antibiotic at NAB739 0.5 μg/ml: 85-128
